Laboratory results: patent publication US8759348B2, “Use of 4-(pyrrolidin-1-yl)quinoline compounds to kill clinically latent microorganisms” (Helperby Therapeutics Limited, priority 2007, dated 2014)

How the values were obtained:
[1] = tested on: Coagulase negative staphylococcus stationary phase bacteria; test: Bactericidal activity against stationary-phase cultures (CFU counts); type: cell-based, Coagulase negative staphylococcus (CNS); settings: 5 μg/mL of test compound
[2] = tested on: Enterococcus stationary phase bacteria; test: as above; type: cell-based; settings: 5 μg/mL of test compound
[3] = tested on: stationary phase Mycobacterium tuberculosis; test: Bactericidal activity against M. tuberculosis stationary-phase cultures (Model 1); type: cell-based; settings: 10 μg/mL of test compound
[4] = tested on: Streptococcus agalactiae stationary phase bacteria; test: Bactericidal activity against stationary-phase cultures (CFU counts); type: cell-based; settings: 10 μg/mL of test compound
[5] = tested on: stationary phase Candida albicans; test: Activity against stationary-phase cultures of Candida albicans (CFU counts); type: cell-based; settings: 10 μg/mL of test compound
[6] = tested on: methicillin-resistant Staph. aureus stationary phase bacteria; test: Bactericidal activity against stationary-phase cultures (CFU counts); type: cell-based, Methicillin resistant S. aureus (MRSA); settings: MRSA stationary phase, 10 μg/mL of test compound
[7] = tested on: Streptococcus pneumoniae stationary phase bacteria; test: as above; type: cell-based; settings: 10 μg/mL of test compound
[8] = tested on: Propionibacterium acnes stationary phase bacteria; test: as above; type: cell-based; settings: 10 μg/mL of test compound
[9] = tested on: E. coli K12 stationary phase bacteria; test: as above; type: cell-based, Escherichia coli K12; settings: 10 μg/mL of test compound
[10] = tested on: Staph. aureus stationary phase bacteria; test: as above; type: cell-based, Staphylococcus aureus; settings: 5 μg/mL of test compound
[11] = tested on: Streptococcus pyogenes stationary phase bacteria; test: as above; type: cell-based; settings: 20 μg/mL of test compound

Compound `Cc1cc(N2CCC(c3ccccc3)C2)c2cc(NC(=O)c3cc(C)[nH]n3)ccc2n1.Cl` (centres unmarked) [Example 22, 5-Methyl-1H-pyrazole-3-carboxylic acid [2-methyl-4-(3-phenylpyrrolidin-1-yl)-quinolin-6-yl]amide hydrochloride] has a log kill [1] of 5.99 and a log kill [2] of 3.22.

`Cc1cc(N2CCC(Cc3ccccc3)C2)c2cc(Oc3ccccc3)ccc2n1.Cl` (centres unmarked) [Example 8, 4-(3-Benzylpyrrolidin-1-yl)-2-methyl-6-phenoxyquinoline hydrochloride] showed a log kill [3] of 5.76, a log kill [4] of 0.97 and a log kill [5] of 3.70. The log kill [6] was 6.34.

Compound `Cc1cc(N2CCC(c3ccccc3)C2)c2cc(Oc3ccccc3)ccc2n1.Cl` (centres unmarked) [Example 39, 2-Methyl-6-phenoxy-4-(3-phenylpyrrolidin-1-yl)quinoline hydrochloride] has a log kill [7] of 7.32, a log kill [8] of 6.34 and a log kill [9] of 6.80.

Compound `Cc1cc(N2CCC(c3ccccc3)C2)c2cc(OCCc3ccccc3)ccc2n1.Cl` (centres unmarked) [Example 6, 2-Methyl-6-phenethyloxy-4-(3-phenylpyrrolidin-1-yl)quinoline hydrochloride] has a log kill [10] of 6.16.

Compound `COc1ccc(C2CCN(c3cc(C)nc4ccc(Oc5ccccc5)cc34)C2)cc1.Cl` (centres unmarked) [Example 9, 4-[3-(4-Methoxyphenyl)pyrrolidin-1-yl]-2-methyl-6-phenoxyquinoline hydrochloride] has a log kill [11] of 6.42.
